Biological target: T1, human histamine H4 receptor (Homo sapiens, UniProt Q9H3N8)
T1 construct: expressed in transfected cells; host or cells: SK-N-MC cells or COS7 cells, transient transfection; cell membranes
Assay: Binding assay on recombinant human histamine H4 receptor (3H-histamine displacement)
Settings: membranes of SK-N-MC or COS7 cells expressing human H4 receptor, Cheng-Prusoff
Protocol: SK-N-MC cells or COS7 cells were transiently transfected with pH4R and grown in 150 cm^2 tissue culture dishes. Cells were washed with saline solution, scraped with a cell scraper and collected by centrifugation (1000 rpm, 5 min). Cell membranes were prepared by homogenization of the cell pellet in 20 mM Tris-HCl with a polytron tissue homogenizer for 10 sec at high speed. Homogenate was centrifuged at 1000 rpm for 5 min at 4° C. The supernatant was then collected and centrifuged at 20,000×g for 25 min at 4° C. The final pellet was resuspended in 50 mM Tris-HCl. Cell membranes were incubated with ^3H-histamine (5-70 nM) in the presence or absence of excess histamine (10,000 nM). Incubation occurred at room temperature for 45 min. Membranes were harvested by rapid filtration over Whatman GF/C filters and washed 4 times with ice-cold 50 mM Tris HCl. Filters were then dried, mixed with scintillant and counted for radioactivity. SK-N-MC or COS7 cells expressing human histamine H4 receptor were used to measure the affinity of binding of other compounds and their ability to displace ^3H-ligand binding by incubating the above-described reaction in the presence of various concentrations of inhibitor or compound to be tested.

| SMILES | Ki [nM] |
| --- | --- |
| Cc1[nH]c(-c2cccc(OCCCCC3CCN(C)CC3)c2)nc1-c1ccc(C(F)(F)F)cc1 [Example 41, 1-Methyl-4-(4-{3-[5-methyl-4-(4-trifluoromethyl-phenyl)-1H-imidazol-2-yl]-phenoxy}-butyl)-piperidine] | 250 |
| Cc1[nH]c(-c2ccnc(OCCCCC3CCN(C)CC3)c2)nc1-c1cccc(C(F)(F)F)c1 [Example 37, 2-[4-(1-Methyl-piperidin-4-yl)-butoxy]-4-[5-methyl-4-(3-trifluoromethyl-phenyl)-1H-imidazol-2-yl]-pyridine] | 174 |
| CCc1[nH]c(-c2ccc(OCCCC3CCN(C)CC3)cc2Cl)nc1C [Example 25, 4-{3-[3-Chloro-4-(5-ethyl-4-methyl-1H-imidazol-2-yl)-phenoxy]-propyl}-1-methylpiperidine] | 100 |
| Cc1[nH]c(-c2ccc(OCCCC3CCN(C)CC3)nc2)nc1-c1cc(Cl)cc(Cl)c1 [Example 27, 5-[4-(3,5-Dichloro-phenyl)-5-methyl-1H-imidazol-2-yl]-2-[3-(1-methyl-piperidin-4-yl)-propoxy]-pyridine] | 290 |
| CN1CCC(CCCOc2ccc(-c3nc(-c4ccccc4)c(C(F)(F)F)[nH]3)cn2)CC1 [Example 31, 2-[3-(1-Methyl-piperidin-4-yl)-propoxy]-5-(4-phenyl-5-trifluoromethyl-1H-imidazol-2-yl)-pyridine] | 186 |
| Cc1[nH]c(-c2ccnc(OCCCCC3CCN(C)CC3)c2)nc1-c1ccc(Cl)cc1 [Example 39, 4-[4-(4-Chloro-phenyl)-5-methyl-1H-imidazol-2-yl]-2-[4-(1-methyl-piperidin-4-yl)-butoxy]-pyridine] | 230 |
| Cc1cc(OCCOC2CCN(C)CC2)ccc1-c1nc(-c2cccc(C(F)(F)F)c2)c(C)[nH]1 [Example 26, 1-Methyl-4-(2-{3-methyl-4-[5-methyl-4-(3-trifluoromethyl-phenyl)-1H-imidazol-2-yl]-phenoxy}-ethoxy)-piperidine] | 300 |
| Cc1cc(OCCCC2CCN(C)CC2)ccc1-c1nc(C)c(CC(C)C)[nH]1 [Example 38, 4-{3-[4-(5-Isobutyl-4-methyl-1H-imidazol-2-yl)-3-methyl-phenoxy]-propyl}-1-methyl-piperidine] | 230 |
| Cc1[nH]c(-c2ccc(OCCCC3CCN(C)CC3)nc2)nc1-c1ccc(Cl)cc1 [Example 28, 5-[4-(4-Chloro-phenyl)-5-methyl-1H-imidazol-2-yl]-2-[3-(1-methyl-piperidin-4-yl)-propoxy]-pyridine] | 72 |
| CN1CCC(CCCCOc2cccc(-c3nc4cccnc4[nH]3)c2)CC1 [Example 69, 2-{3-[4-(1-Methyl-piperidin-4-yl)-butoxy]-phenyl}-3H-imidazo[4,5-b]pyridine] | 1410 |
| Cc1nc(-c2ccc(OCCCC3CCN(C)CC3)cc2Cl)[nH]c1CC(C)C [Example 40, 4-{3-[3-Chloro-4-(5-isobutyl-4-methyl-1H-imidazol-2-yl)-phenoxy]-propyl}-1-methyl-piperidine] | 93 |
| CN1CCN(CCCOc2ccc(-c3nc(-c4ccccc4Cl)c(-c4ccccc4Cl)[nH]3)c(Cl)c2)CC1 [Example 3, 1-(3-{4-[4,5-Bis-(2-chloro-phenyl)-1H-imidazol-2-yl]-3-chloro-phenoxy}-propyl)-4-methyl-piperazine] | 244 |
| Cc1cc(OCCOC2CCN(C)CC2)ccc1-c1nc(-c2ccc(Cl)cc2)c(C)[nH]1 [Example 48, 4-(2-{4-[4-(4-Chloro-phenyl)-5-methyl-1H-imidazol-2-yl]-3-methyl-phenoxy}-ethoxy)-1-methyl-piperidine] | 620 |
| CCCc1[nH]c(-c2ccc(OCCCC3CCN(C)CC3)cc2Cl)nc1C [Example 24, 4-{3-[3-Chloro-4-(4-methyl-5-propyl-1H-imidazol-2-yl)-phenoxy]-propyl}-1-methyl-piperidine] | 69 |

These reach a lower Ki. Values come first.

| Ki [nM] | SMILES |
| --- | --- |
| 32 | CN1CCCN(CCCOc2ccc(-c3nc4c([nH]3)CCCC4)c(Cl)c2)CC1 [Example 13, 2-{2-Chloro-4-[3-(4-methyl-[1,4]diazepan-1-yl)-propoxy]-phenyl}-4,5,6,7-tetrahydro-1H-benzoimidazole] |
| 29 | CN1CCN(CCCOc2ccc(-c3nc(-c4ccc(F)cc4)c(-c4ccc(F)cc4)[nH]3)c(Cl)c2)CC1 [Example 6, 1-(3-{4-[4,5-Bis-(4-fluoro-phenyl)-1H-imidazol-2-yl]-3-chloro-phenoxy}-propyl)-4-methyl-piperazine] |
| 52 | Cc1[nH]c(-c2ccc(OCCCC3CCN(C)CC3)cc2Cl)nc1-c1cc(Cl)cc(Cl)c1 [Example 17, 4-(3-{3-Chloro-4-[4-(3,5-dichloro-phenyl)-5-methyl-1H-imidazol-2-yl]-phenoxy}-propyl)-1-methyl-piperidine] |
| 21 | COc1cccc(-c2nc(-c3ccc(OCCCN4CCN(C)CC4)cc3Cl)[nH]c2-c2cccc(OC)c2)c1 [Example 7, 1-(3-{4-[4,5-Bis-(3-methoxy-phenyl)-1H-imidazol-2-yl]-3-chloro-phenoxy}-propyl)-4-methyl-piperazine] |
| 44 | COc1ccc(-c2nc(-c3ccc(OCCCN4CCN(C)CC4)cc3Cl)[nH]c2-c2ccc(OC)cc2)cc1 [Example 4, 1-(3-{4-[4,5-Bis-(4-methoxy-phenyl)-1H-imidazol-2-yl]-3-chloro-phenoxy}-propyl)-4-methyl-piperazine] |
| 57 | CN1CCC(CCCCOc2cccc(-c3nc(-c4ccccc4)c(C(F)(F)F)[nH]3)c2)CC1 [Example 35, 1-Methyl-4-{4-[3-(4-phenyl-5-trifluoromethyl-1H-imidazol-2-yl)-phenoxy]-butyl}-piperidine] |
| 33 | Cc1cc(OCCCC2CCN(C)CC2)ccc1-c1nc(-c2ccc(Cl)cc2)c(C)[nH]1 [Example 47, 4-(3-{4-[4-(4-Chloro-phenyl)-5-methyl-1H-imidazol-2-yl]-3-methyl-phenoxy}-propyl)-1-methyl-piperidine] |
| 45 | Cc1cc(OCCCC2CCN(C)CC2)ccc1-c1nc(-c2cc(Cl)cc(Cl)c2)c(C)[nH]1 [Example 18, 4-(3-{4-[4-(3,5-Dichloro-phenyl)-5-methyl-1H-imidazol-2-yl]-3-methyl-phenoxy}-propyl)-1-methyl-piperidine] |
| 42 | Cc1[nH]c(-c2ccc(OCCCC3CCN(C)CC3)nc2)nc1-c1cccc(C(F)(F)F)c1 [Example 29, 2-[3-(1-Methyl-piperidin-4-yl)-propoxy]-5-[5-methyl-4-(3-trifluoromethyl-phenyl)-1H-imidazol-2-yl]-pyridine] |
| 22 | Cc1[nH]c(-c2ccc(OCCCC3CCN(C)CC3)cc2Cl)nc1-c1ccc(Cl)cc1 [Example 19, 4-(3-{3-Chloro-4-[4-(4-chloro-phenyl)-5-methyl-1H-imidazol-2-yl]-phenoxy}-propyl)-1-methyl-piperidine] |
| 29 | Cc1ccc(-c2[nH]c(-c3ccc(OCCCC4CCN(C)CC4)cc3Cl)nc2-c2ccc(Cl)cc2)cc1 [Example 22, 4-(3-{3-Chloro-4-[4-(4-chloro-phenyl)-5-p-tolyl-1H-imidazol-2-yl]-phenoxy}-propyl)-1-methyl-piperidine] |
| 64 | Cc1[nH]c(-c2ccc(OCCCC3CCN(C)CC3)nc2)nc1-c1ccc(C(F)(F)F)cc1 [Example 30, 2-[3-(1-Methyl-piperidin-4-yl)-propoxy]-5-[5-methyl-4-(4-trifluoromethyl-phenyl)-1H-imidazol-2-yl]-pyridine] |
| 60 | COc1cccc(-c2nc(-c3ccc(OCCCN4CCN(C)CC4)c(F)c3)[nH]c2-c2cccc(OC)c2)c1 [Example 8, 1-(3-{4-[4,5-Bis-(3-methoxy-phenyl)-1H-imidazol-2-yl]-2-fluoro-phenoxy}-propyl)-4-methyl-piperazine] |
| 33 | Cc1[nH]c(-c2cccc(OCCCCC3CCN(C)CC3)c2)nc1-c1ccc(Cl)cc1 [Example 34, 4-(4-{3-[4-(4-Chloro-phenyl)-5-methyl-1H-imidazol-2-yl]-phenoxy}-butyl)-1-methyl-piperidine] |
| 38 | CN1CCC(CCCOc2ccc(-c3nc(-c4ccccc4)c(C(F)(F)F)[nH]3)c(Cl)c2)CC1 [Example 15, 4-{3-[3-Chloro-4-(4-phenyl-5-trifluoromethyl-1H-imidazol-2-yl)-phenoxy]-propyl}-1-methyl-piperidine] |
| 20 | CN1CCN(CCCOc2ccc(-c3nc(-c4ccccc4)c(C(F)(F)F)[nH]3)c(Cl)c2)CC1 [Example 44, 1-{3-[3-Chloro-4-(4-phenyl-5-trifluoromethyl-1H-imidazol-2-yl)-phenoxy]-propyl}-4-methyl-piperazine] |
| 39 | CN1CCC(CCCOc2ccc(-c3nc(-c4ccc(F)cc4)c(-c4ccc(F)cc4)[nH]3)c(Cl)c2)CC1 [Example 20, 4-(3-{4-[4,5-Bis-(4-fluoro-phenyl)-1H-imidazol-2-yl]-3-chloro-phenoxy}-propyl)-1-methyl-piperidine] |
| 65 | CN1CCCN(CCCOc2ccc(-c3nc4c([nH]3)CCCC4)cc2Cl)CC1 [Example 12, 2-{3-Chloro-4-[3-(4-methyl-[1,4]diazepan-1-yl)-propoxy]-phenyl}-4,5,6,7-tetrahydro-1H-benzoimidazole] |
| 16 | Cc1cc(OCCCC2CCN(C)CC2)ccc1-c1nc(-c2cccc(C(F)(F)F)c2)c(C)[nH]1 [Example 46, 1-Methyl-4-(3-{3-methyl-4-[5-methyl-4-(3-trifluoromethyl-phenyl)-1H-imidazol-2-yl]-phenoxy}-propyl)-piperidine] |

Reference: US8017600B2, “Imidazole compounds” (Janssen Pharmaceutica NV, priority 2004, dated 2011)
